This note sets out measurements from article PMC10934500, “Exploring the Anti-Diabetic Potential of Quercetagitrin through Dual Inhibition of PTPN6 and PTPN9” (Nutrients, 2024).

Molecules are shown by their SMILES.

The target of the assay is PTPN6 (Homo sapiens, UniProt P29350). The assay is described as follows: DiFMUP fluorescence phosphatase assay with recombinant enzyme purified from E. coli. Format: biochemical.
Sequence of PTPN6 (P29350 whole entry): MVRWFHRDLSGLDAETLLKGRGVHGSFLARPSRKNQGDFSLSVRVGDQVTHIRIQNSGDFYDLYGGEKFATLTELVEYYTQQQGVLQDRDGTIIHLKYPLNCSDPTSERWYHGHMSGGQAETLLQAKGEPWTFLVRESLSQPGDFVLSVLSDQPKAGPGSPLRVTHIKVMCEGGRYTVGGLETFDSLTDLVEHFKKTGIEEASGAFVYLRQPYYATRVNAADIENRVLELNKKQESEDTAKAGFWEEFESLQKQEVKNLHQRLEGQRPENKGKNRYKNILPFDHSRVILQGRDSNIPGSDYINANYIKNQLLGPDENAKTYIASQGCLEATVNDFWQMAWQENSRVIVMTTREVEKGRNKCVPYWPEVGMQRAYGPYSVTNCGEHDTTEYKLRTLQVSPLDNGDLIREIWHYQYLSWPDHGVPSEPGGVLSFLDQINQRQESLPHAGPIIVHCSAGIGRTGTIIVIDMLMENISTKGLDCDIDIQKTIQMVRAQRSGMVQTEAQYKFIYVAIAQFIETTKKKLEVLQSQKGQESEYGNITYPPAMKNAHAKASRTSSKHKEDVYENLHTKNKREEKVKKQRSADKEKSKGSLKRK

Take `O=c1c(O)c(-c2ccc(O)c(O)c2)oc2cc(O[C@@H]3O[C@H](CO)[C@@H](O)[C@H](O)[C@H]3O)c(O)c(O)c12` [QG, quercetagitrin]: the IC50 (as a rule, the concentration that gives 50% inhibition) came to 1000 nM.
